Experiments:
Experiment in all cases: relative viability (nuclei count vs DMSO), 5 days (fraction); higher = more cells survive
[1] = compound: C1/C(=C\C2=CC=CS2)/C(=O)/C(=C/C3=CC=CS3)/C1 + C[C@]1(O)C[C@@H](c2nc(-c3ccc4ccc(-c5ccccc5)nc4c3)c3c(N)nccn32)C1 [Linsitinib] (partner 1 µM)
Summary of the method: (§1)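 Each reported value is a median over duplicate plates. It expresses relative viability: treated-well nuclei count divided by vehicle-well nuclei count. Lung cancer cell lines in 1536-well plates were dosed by pin tool a day after seeding, alone with one drug or with a fixed anchor-drug dose plus five library-drug doses (not always all listed) in √10 steps, and nuclei were counted after 5 days.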

[2] = compound: C[C@]12O[C@H](C[C@]1(O)CO)n1c3ccccc3c3c4c(c5c6ccccc6n2c5c31)CNC4=O [Lestaurtinib] + C[C@]1(O)C[C@@H](c2nc(-c3ccc4ccc(-c5ccccc5)nc4c3)c3c(N)nccn32)C1 [Linsitinib] (partner 1 µM)
Summary of the method: as §1

[3] = compound: C1/C(=C\C2=CC=CS2)/C(=O)/C(=C/C3=CC=CS3)/C1 + COc1cc2c(Oc3ccc(NC(=O)C4(C(=O)Nc5ccc(F)cc5)CC4)cc3F)ccnc2cc1OCCCN1CCOCC1 [Foretinib] (partner 0.25 µM)
Summary of the method: as §1

[4] = compound: C[C@]12O[C@H](C[C@]1(O)CO)n1c3ccccc3c3c4c(c5c6ccccc6n2c5c31)CNC4=O [Lestaurtinib] + Cc1cc(Nc2cc(N3CCN(C)CC3)nc(Sc3ccc(NC(=O)C4CC4)cc3)n2)n[nH]1 [Tozasertib] (partner 0.1 µM)
Summary of the method: as §1

Cell Line | relative viability ([1]; first compound 0.2 µM) | relative viability ([1]; first compound 0.6325 µM) | relative viability ([1]; first compound 2 µM) | relative viability ([1]; first compound 6.325 µM) | relative viability ([1]; first compound 20 µM) | relative viability ([2]; first compound 0.005 µM) | relative viability ([2]; first compound 0.01581 µM) | relative viability ([2]; first compound 0.05 µM) | relative viability ([2]; first compound 0.1581 µM) | relative viability ([2]; first compound 0.5 µM) | relative viability ([3]; first compound 0.2 µM) | relative viability ([3]; first compound 0.6325 µM) | relative viability ([3]; first compound 2 µM) | relative viability ([3]; first compound 6.325 µM) | relative viability ([3]; first compound 20 µM) | relative viability ([4]; first compound 0.005 µM) | relative viability ([4]; first compound 0.01581 µM) | relative viability ([4]; first compound 0.05 µM) | relative viability ([4]; first compound 0.1581 µM) | relative viability ([4]; first compound 0.5 µM)
LU99A | 0.535 | 0.497 | 0.574 | 0.353 | 0.61 | 0.46 | 0.443 | 0.3 | 0.284 | 0.21 | 0.794 | 0.853 | 1.01 | 0.753 | 0.89 | 0.287 | 0.297 | 0.271 | 0.218 | 0.226
LXF-289 | 0.981 | 1.03 | 0.922 | 0.912 | 0.984 | 0.967 | 0.964 | 0.741 | 0.802 | 0.197 | 0.982 | 0.959 | 0.973 | 0.994 | 0.98 | 0.229 | 0.206 | 0.194 | 0.203 | 0.141
NCI-H23 | 0.584 | 0.51 | 0.67 | 0.437 | 0.643 | 0.509 | 0.604 | 0.387 | 0.463 | 0.233 | 0.973 | 1.13 | 1.07 | 0.851 | 0.991 | 0.492 | 0.343 | 0.3 | 0.439 | 0.237
NCI-H322M | 0.995 | 0.909 | 1.11 | 0.81 | 0.845 | 0.853 | 0.649 | 0.375 | 0.425 | 0.392 | 1 | 1.06 | 1.1 | 0.855 | 0.874 | 0.483 | 0.276 | 0.355 | 0.397 | 0.415
NCI-H358 | 0.887 | 0.757 | 0.821 | 0.644 | 0.809 | 0.622 | 0.494 | 0.311 | 0.301 | 0.187 | 0.668 | 0.742 | 0.761 | – | 0.631 | 0.103 | 0.0848 | 0.0849 | 0.0845 | 0.0896
NCI-H441 | 0.627 | 0.692 | 0.664 | 0.547 | 0.583 | 0.446 | 0.547 | 0.182 | 0.339 | 0.27 | 1.11 | 0.913 | 1.15 | 0.867 | 0.927 | 0.711 | 0.719 | 0.537 | 0.651 | 0.442
NCI-H460 | 0.838 | 0.976 | 0.694 | – | 0.728 | 0.24 | 0.433 | 0.17 | 0.262 | 0.0291 | 1.02 | 1.06 | 1.02 | 0.881 | 0.99 | 0.519 | 0.478 | 0.524 | 0.986 | 0.303
NCI-H520 | 0.953 | 1.09 | 0.941 | 1.02 | 0.795 | 0.944 | 1.14 | 0.632 | 0.549 | 0.256 | 0.842 | 0.93 | 0.804 | 0.711 | 0.632 | 0.458 | 0.468 | 0.428 | 0.388 | 0.254

Reference: the supplement of paper PMC10307832
